From patent publication US8846669B2, “Oxazolidinone derivative and medical composition containing same” (Legochem Biosciences, Inc., priority 2011, dated 2014)
≈ marks a conversion by molar mass, not a printed value. Read-outs that look alike come from different tables or passages of the source.

Key:
Experiment in all cases: In vitro antibacterial activity, broth microdilution MIC90
Format in all cases: cell-based
Staphylococcus aureus = tested on: Staphylococcus aureus
Experimental: (§1) MIC90 was measured by broth microdilution method based on CLSI standards [reference: Clinical and Laboratory Standards Institute Document. (2000) Methods for Dilution Antimicrobial Susceptibility Test for Bacteria that Grow Aerobically-Fifth Edition: M7-A5. CLSI, Villanova, Pa.].
(§2) Activities of 12 strains including Staphylococcus aureus, Methicillin Resistant Staphylococcus aureus, Staphylococcus epidermidis, Methicillin Resistant Staphylococcus epidermidis, Enterococcus faecalis, Vancomycin Resistant Enterococcus faecalis, Linezolid and Vancomycin Resistant Enterococcus faecalis, Enterococcus faecium, Vancomycin Resistant Enterococcus faecium, Linezolid and Vancomycin Resistant Enterococcus faecium, and Moraxella catarrhalis, were measured, and results are shown in Table 1 below.
(§3) The final concentration of test material in the antibacterial test was from 0.063 μg/mL (minimum) to 128 μg/mL (maximum), and the final concentration of DMSO used as an excipient was 2.5% (V/V). Linezolid represented by Formula B below (manufactured by Pfizer) was used as a control and bacterial activity thereof was compared with those of the test materials.

[1] = tested on: Vancomycin Resistant Enterococcus faecalis
Experimental: as §1, §2, §3

Moraxella catarrhalis = tested on: Moraxella catarrhalis
Experimental: as §1, §2, §3

[2] = tested on: Methicillin Resistant Staphylococcus aureus
Experimental: as §1, §2, §3

[3] = tested on: Staphylococcus epidermidis
Experimental: as §1, §2, §3

[4] = tested on: Linezolid and Vancomycin Resistant Enterococcus faecium (strain 11)
Experimental: as §1, §2, §3

[5] = tested on: Linezolid and Vancomycin Resistant Enterococcus faecium (strain 10)
Experimental: as §1, §2, §3

[6] = tested on: Linezolid and Vancomycin Resistant Enterococcus faecalis
Experimental: as §1, §2, §3

[7] = tested on: Vancomycin Resistant Enterococcus faecium
Experimental: as §1, §2, §3

Enterococcus faecalis = tested on: Enterococcus faecalis
Experimental: as §1, §2, §3

[8] = tested on: Methicillin Resistant Staphylococcus epidermidis
Experimental: as §1, §2, §3

Enterococcus faecium = tested on: Enterococcus faecium
Experimental: as §1, §2, §3

[9] = Staphylococcus aureus, strain 1, S. aureus, read-out: MIC90
[10] = Enterococcus faecalis, strain 6, E. faecalis VanA, read-out: MIC90
[11] = Moraxella catarrhalis, strain 12, M. catarrhalis, read-out: MIC90
[12] = Staphylococcus aureus, strain 2, S. aureus MR, read-out: MIC90
[13] = Staphylococcus epidermidis, strain 3, S. epidermidis, read-out: MIC90
[14] = Enterococcus faecium, strain 11, E. faecium VanA LR, read-out: MIC90
[15] = Enterococcus faecium, strain 10, E. faecium VanA LR, read-out: MIC90
[16] = Enterococcus faecalis, strain 7, E. faecalis VanA LR, read-out: MIC90
[17] = Enterococcus faecium, strain 9, E. faecium VanA, read-out: MIC90
[18] = Enterococcus faecalis, strain 5, E. faecalis, read-out: MIC90
[19] = Staphylococcus epidermidis, strain 4, S. epidermidis MR, read-out: MIC90
[20] = Enterococcus faecium, strain 8, E. faecium, read-out: MIC90

Row | Compound | MIC90 (Staphylococcus aureus; Staphylococcus aureus) [µg/mL] | MIC90 ([1]; Enterococcus faecalis) [µg/mL] | MIC90 (Moraxella catarrhalis; Moraxella catarrhalis) [µg/mL] | MIC90 ([2]; Staphylococcus aureus) [µg/mL] | MIC90 ([3]; Staphylococcus epidermidis) [µg/mL] | MIC90 ([4]; Enterococcus faecium) [µg/mL] | MIC90 ([5]; Enterococcus faecium) [µg/mL] | MIC90 ([6]; Enterococcus faecalis) [µg/mL] | MIC90 ([7]; Enterococcus faecium) [µg/mL] | MIC90 (Enterococcus faecalis; Enterococcus faecalis) [µg/mL] | MIC90 ([8]; Staphylococcus epidermidis) [µg/mL] | MIC90 (Enterococcus faecium; Enterococcus faecium) [µg/mL] | MIC90 (Staphylococcus aureus; [9]) [µg/mL] | MIC90 [1, 10] [µg/mL] | MIC90 (Moraxella catarrhalis; [11]) [µg/mL] | MIC90 [2, 12] [µg/mL] | MIC90 [3, 13] [µg/mL] | MIC90 [4, 14] [µg/mL] | MIC90 [5, 15] [µg/mL] | MIC90 [6, 16] [µg/mL] | also measured
1 | C#CCN1CCN(c2ccc(-c3ccc(N4C[C@H](CNC(C)=O)OC4=O)cc3F)cn2)C=N1 [Compound 8] | 0.25 (≈ 0.555 µM) | 1 (≈ 2.22 µM) | 2 (≈ 4.44 µM) | 1 (≈ 2.22 µM) | 0.5 (≈ 1.11 µM) | 4 (≈ 8.88 µM) | 4 (≈ 8.88 µM) | 4 (≈ 8.88 µM) | 0.5 (≈ 1.11 µM) | 0.5 (≈ 1.11 µM) | 1 (≈ 2.22 µM) | 1 (≈ 2.22 µM) |  |  |  |  |  |  |  |  | 
2 | CC(=O)NC[C@H]1CN(c2ccc(-c3ccc(N4C=NN(C(=O)C(O)CO)CC4)nc3)c(F)c2)C(=O)O1 (stereo partly drawn) [Compound 21] |  |  |  |  |  |  |  |  |  |  |  |  | 0.25 (≈ 0.5 µM) | 1 (≈ 2 µM) | 4 (≈ 7.99 µM) | 1 (≈ 2 µM) | 0.5 (≈ 0.999 µM) | 4 (≈ 7.99 µM) | 2 (≈ 4 µM) | 2 (≈ 4 µM) | MIC90 [7, 17]: 0.5 µg/mL (≈ 0.999 µM); MIC90 (Enterococcus faecalis; [18]): 1 µg/mL (≈ 2 µM); MIC90 [8, 19]: 1 µg/mL (≈ 2 µM); MIC90 (Enterococcus faecium; [20]): 0.5 µg/mL (≈ 0.999 µM)
3 | CCN1CCN(c2ccc(-c3ccc(N4C[C@H](CNC(C)=O)OC4=O)cc3F)cn2)C=N1 [Compound 4] | 0.5 (≈ 1.14 µM) | 0.5 (≈ 1.14 µM) | 2 (≈ 4.54 µM) | 1 (≈ 2.27 µM) | 0.5 (≈ 1.14 µM) | 2 (≈ 4.54 µM) | 2 (≈ 4.54 µM) | 2 (≈ 4.54 µM) | 0.5 (≈ 1.14 µM) | 0.5 (≈ 1.14 µM) | 1 (≈ 2.27 µM) | 0.5 (≈ 1.14 µM) |  |  |  |  |  |  |  |  | 
4 | CC(=O)NC[C@H]1CN(c2ccc(-c3ccc(N4C=NN(C(=O)COC(C)=O)CC4)nc3)c(F)c2)C(=O)O1 [Compound 12] | 0.125 (≈ 0.244 µM) | 0.25 (≈ 0.488 µM) | 0.5 (≈ 0.976 µM) | 0.25 (≈ 0.488 µM) | 0.125 (≈ 0.244 µM) | 1 (≈ 1.95 µM) | 1 (≈ 1.95 µM) | 1 (≈ 1.95 µM) | 0.25 (≈ 0.488 µM) | 0.125 (≈ 0.244 µM) | 0.25 (≈ 0.488 µM) | 0.063 (≈ 0.123 µM) |  |  |  |  |  |  |  |  | 
5 | Cl.O=C1O[C@@H](COc2ccon2)CN1c1ccc(-c2ccc(N3C=NNCC3)nc2)c(F)c1 [Compound 44] |  |  |  |  |  |  |  |  |  |  |  |  |  |  |  |  |  |  |  |  | MIC90 (Staphylococcus aureus; strain 1, S. aureus): 0.5 µg/mL; MIC90 ([1]; strain 6, E. faecalis VanA): 4 µg/mL; MIC90 (Moraxella catarrhalis; strain 12, M. catarrhalis): >128 µg/mL; MIC90 ([2]; strain 2, S. aureus MR): 1 µg/mL; MIC90 ([3]; strain 3, S. epidermidis): 1 µg/mL; MIC90 ([4]; strain 11, E. faecium VanA LR): 16 µg/mL; MIC90 ([5]; strain 10, E. faecium VanA LR): 16 µg/mL; MIC90 ([6]; strain 7, E. faecalis VanA LR): 16 µg/mL; MIC90 ([7]; strain 9, E. faecium VanA): 2 µg/mL; MIC90 (Enterococcus faecalis; strain 5, E. faecalis): 4 µg/mL; MIC90 ([8]; strain 4, S. epidermidis MR): 4 µg/mL; MIC90 (Enterococcus faecium; strain 8, E. faecium): 1 µg/mL
6 | CCN1C=NN(c2ccc(-c3ccc(N4C[C@H](CNC(C)=O)OC4=O)cc3F)cn2)CC1 [Compound 56] |  |  |  |  |  |  |  |  |  |  |  |  | 1 (≈ 2.27 µM) | 2 (≈ 4.54 µM) | 2 (≈ 4.54 µM) | 4 (≈ 9.08 µM) | 1 (≈ 2.27 µM) | 4 (≈ 9.08 µM) | 4 (≈ 9.08 µM) | 4 (≈ 9.08 µM) | MIC90 [7, 17]: 1 µg/mL (≈ 2.27 µM); MIC90 (Enterococcus faecalis; [18]): 1 µg/mL (≈ 2.27 µM); MIC90 [8, 19]: 2 µg/mL (≈ 4.54 µM); MIC90 (Enterococcus faecium; [20]): 1 µg/mL (≈ 2.27 µM)
7 | Cl.NCC(=O)N1CCN(c2ccc(-c3ccc(N4C[C@H](COc5ccon5)OC4=O)cc3F)cn2)C=N1 [Compound 48] |  |  |  |  |  |  |  |  |  |  |  |  |  |  |  |  |  |  |  |  | MIC90 (Staphylococcus aureus; strain 1, S. aureus): 0.5 µg/mL; MIC90 ([1]; strain 6, E. faecalis VanA): 4 µg/mL; MIC90 (Moraxella catarrhalis; strain 12, M. catarrhalis): 32 µg/mL; MIC90 ([2]; strain 2, S. aureus MR): 1 µg/mL; MIC90 ([3]; strain 3, S. epidermidis): 1 µg/mL; MIC90 ([4]; strain 11, E. faecium VanA LR): 32 µg/mL; MIC90 ([5]; strain 10, E. faecium VanA LR): 16 µg/mL; MIC90 ([6]; strain 7, E. faecalis VanA LR): 32 µg/mL; MIC90 ([7]; strain 9, E. faecium VanA): 2 µg/mL; MIC90 (Enterococcus faecalis; strain 5, E. faecalis): 4 µg/mL; MIC90 ([8]; strain 4, S. epidermidis MR): 4 µg/mL; MIC90 (Enterococcus faecium; strain 8, E. faecium): 1 µg/mL
8 | O=C1O[C@@H](CO)CN1c1ccc(-c2ccc(N3C=NOCC3)nc2)c(F)c1 [Compound 58] |  |  |  |  |  |  |  |  |  |  |  |  | 0.5 (≈ 1.34 µM) | 0.5 (≈ 1.34 µM) | 8 (≈ 21.5 µM) | 1 (≈ 2.69 µM) | 0.5 (≈ 1.34 µM) | 8 (≈ 21.5 µM) | 4 (≈ 10.7 µM) | 8 (≈ 21.5 µM) | MIC90 [7, 17]: 1 µg/mL (≈ 2.69 µM); MIC90 (Enterococcus faecalis; [18]): 1 µg/mL (≈ 2.69 µM); MIC90 [8, 19]: 1 µg/mL (≈ 2.69 µM); MIC90 (Enterococcus faecium; [20]): 0.5 µg/mL (≈ 1.34 µM)
9 | O=C(CO)N1CCN(c2ccc(-c3ccc(N4C[C@H](Cn5ccnn5)OC4=O)cc3F)cn2)C=N1 [Compound 32] | 0.25 (≈ 0.52 µM) | 0.5 (≈ 1.04 µM) | 2 (≈ 4.16 µM) | 1 (≈ 2.08 µM) | 0.25 (≈ 0.52 µM) | 2 (≈ 4.16 µM) | 2 (≈ 4.16 µM) | 2 (≈ 4.16 µM) | 0.5 (≈ 1.04 µM) | 0.5 (≈ 1.04 µM) | 1 (≈ 2.08 µM) | 0.25 (≈ 0.52 µM) |  |  |  |  |  |  |  |  | 
